Reference: patent publication US20090025713A1, “Nebulised Antibiotics for Inhalation Therapy” (priority 2006, published 2009)
“And” between values parts separate entries of the source, which are not always exact repeats. Equal entries are not always repeated.

Test system: Calu-3 cells
Test: Cellular tolerability test: TEER of Calu-3 monolayers
Format: cell-based, human
Settings: for TEER after 2 hours Mean [%]: in KRB; for effect on vitality of Calu-3 cells (in words): summary of Table 1
Excerpt: In addition to the physicochemical properties of drug formulations and their stability, either as solution or dispersed systems, it is helpful to investigate the cellular tolerability of such drug formulations in a cell culture test system. For this purpose the bronchial cell line Calu-3 was used as an in vitro model for toxicity assessment. Calu-3 represents a human submucosal adenocarcinoma cell line that forms tight, polarized and well differentiated monolayers with apical microvilli and tight junctional complexes. In contrast to other cell lines, Calu-3 cells generate extracellular mucus. […] In addition, it has been shown that loss of monolayer integrity is paralleled by a decrease in TEER to values below 600Ω·cm^2 and an increase in permeability. […] Since toxicity is paralleled by a loss of the monolayer integrity, a decrease in TEER of more than 50% is indicative for the toxicity of a test compound. […] The Calu-3 cell tests offer the possibility to investigate potential effects of the drug substance as well as the influence of excipients or formulation constituents.
TEER was determined in physiological Krebs Ringer buffer (KRB) for two hours after the application of the different formulations or excipients. A decrease of the measured resistance indicated an affection of intact epithelial cell-cell contacts (tight junctions), which is an extremely sensitive parameter to determine toxic effects. To assess whether such cell damage was reversible, the cells were incubated for 24 h in cell culture subsequently to the incubation with the test formulations.

[1] = conc. (undiluted), after 24 h in cell culture following incubation
[2] = conc. (undiluted; stock concentration given with each formulation name)
[3] = dilution 1:5, after 24 h in cell culture following incubation
[4] = dilution 1:10, after 24 h in cell culture following incubation

Molecule	TEER after 24 hours Mean [%] [1]	TEER after 2 hours Mean [%] [2]	TEER after 24 hours Mean [%] [3]	TEER after 2 hours Mean [%] (dilution 1:5)	TEER after 24 hours Mean [%] [4]	TEER after 2 hours Mean [%] (dilution 1:10)	TEER after 24 hours Mean [%] (positive control, 0.1% w/v in KRB, passages p44U, p45U, p46U, p47U)	effect on vitality of Calu-3 cells (in words)
OC[C@H]1O[C@@H]2O[C@H]3[C@H](O)[C@@H](O)[C@@H](O[C@H]4[C@H](O)[C@@H](O)[C@@H](O[C@H]5[C@H](O)[C@@H](O)[C@@H](O[C@H]6[C@H](O)[C@@H](O)[C@@H](O[C@H]7[C@H](O)[C@@H](O)[C@@H](O[C@H]8[C@H](O)[C@@H](O)[C@@H](O[C@H]9[C@H](O)[C@@H](O)[C@@H](O[C@H]1[C@H](O)[C@H]2O)O[C@@H]9CO)O[C@@H]8CO)O[C@@H]7CO)O[C@@H]6CO)O[C@@H]5CO)O[C@@H]4CO)O[C@@H]3CO [Gamma-CD, γ-cyclodextrin]	41%	61%	46%	69%	44%	65%	–	–
Vitamin E TPGS	50%	47%	49%	48%	51%	47%	–	–
O=C(O)CC(O)(CC(=O)O)C(=O)O [Citric acid]	53%	105%	44%	40%	–	–	–	–
O=C1NS(=O)(=O)c2ccccc21.[Na] [Saccharin-Natrium]	43%	55%	50%	55%	–	–	–	–
CCCCCCCCCCCCOS(=O)(=O)[O-].[Na+] [SDS, reference compound]	–	–	–	–	–	–	10% and 6% and 8%	–
2-hydroxypropyl-β-cyclodextrin [Example 2-HP-β-CD]	45%	59%	77%	86%	73%	90%	–	–
O=C1O[C@H]([C@@H](O)CO)C([O-])=C1O.[Na+] [Sodium Ascorbate]	70%	22%	66%	70%	51%	57%	–	–
C[C@@H]1[C@H](O)[C@@H](C)/C=C/C=C/C=C/C=C/C=C/C=C/C=C/[C@H](O[C@@H]2O[C@H](C)[C@@H](O)[C@H](N)[C@@H]2O)C[C@@H]2O[C@](O)(C[C@@H](O)C[C@@H](O)[C@H](O)CC[C@@H](O)C[C@@H](O)CC(=O)O[C@H]1C)C[C@H](O)[C@H]2C(=O)O [Amphotericin B, reference compound]	67%	108%	64%	80%	–	–	–	No damaging effect
NC[C@H]1O[C@H](O[C@H]2[C@H](O)[C@@H](O[C@H]3O[C@H](CO)[C@@H](O)[C@H](N)[C@H]3O)[C@H](N)C[C@@H]2N)[C@H](N)C[C@@H]1O [Tobramycin (T100), Tobramycin, reference compound]	46%	94%	79%	123%	–	–	–	No damaging effect
Captisol	58%	114%	56%	98%	66%	83%	–	–
